Experiment [1] concerns the target Helicobacter pylori urease (Helicobacter pylori, UniProt P69996). Nature of the experiment: Urease activity inhibition test (13C-urea, 13C-NMR), Helicobacter pylori urease. The experiment is classed as biochemical. Here is the method:
Using ^13C-urea as a substrate, the amount of urea, which is eliminated due to the urease enzyme reaction, was measured with a lapse of time by means of ^13C-NMR. On the basis of an elimination rate (M/sec) of ^13C-urea in the absence of the urease inhibitor sample, the case where the elimination rate in the presence of the sample is reduced to half was calculated as IC50 of the sample.
(Preparation of sample) In a NMR tube having a diameter of 5 mm, Helicobacter pylori urease (manufactured by OTSUKA PHARMACEUTICAL CO., 1.6 units) dissolved in 500 μof a mixed solvent (pH 7) of 400 μl of 0.1M phosphate buffer (pH 7) and 100 μl of DMSO was added and each test compound (urease inhibitor sample) dissolved in 100 μl of ethanol was added, followed by standing at 20° C. for 30 minutes and further standing on an ice bath for 10 minutes. […]
Each sample was inserted into a probe and the enzyme reaction was conducted at the reaction temperature (temperature of the probe) of 20° C. and the measurement was conducted every 20 seconds after 1 to 4 minutes have passed since the beginning of the reaction, while the measurement was conducted every one minute after 4 or more minutes have passed, using a ^13C-NMR apparatus. Consequently, an elimination rate (M/sec) of a signal (165 ppm) of ^13C-urea as the substrate was determined.

The target of experiment [2] is T1, jack bean urease (Canavalia ensiformis, UniProt P07374).
T1 construct: purchased
T1 sequence (P07374 whole entry, looked up): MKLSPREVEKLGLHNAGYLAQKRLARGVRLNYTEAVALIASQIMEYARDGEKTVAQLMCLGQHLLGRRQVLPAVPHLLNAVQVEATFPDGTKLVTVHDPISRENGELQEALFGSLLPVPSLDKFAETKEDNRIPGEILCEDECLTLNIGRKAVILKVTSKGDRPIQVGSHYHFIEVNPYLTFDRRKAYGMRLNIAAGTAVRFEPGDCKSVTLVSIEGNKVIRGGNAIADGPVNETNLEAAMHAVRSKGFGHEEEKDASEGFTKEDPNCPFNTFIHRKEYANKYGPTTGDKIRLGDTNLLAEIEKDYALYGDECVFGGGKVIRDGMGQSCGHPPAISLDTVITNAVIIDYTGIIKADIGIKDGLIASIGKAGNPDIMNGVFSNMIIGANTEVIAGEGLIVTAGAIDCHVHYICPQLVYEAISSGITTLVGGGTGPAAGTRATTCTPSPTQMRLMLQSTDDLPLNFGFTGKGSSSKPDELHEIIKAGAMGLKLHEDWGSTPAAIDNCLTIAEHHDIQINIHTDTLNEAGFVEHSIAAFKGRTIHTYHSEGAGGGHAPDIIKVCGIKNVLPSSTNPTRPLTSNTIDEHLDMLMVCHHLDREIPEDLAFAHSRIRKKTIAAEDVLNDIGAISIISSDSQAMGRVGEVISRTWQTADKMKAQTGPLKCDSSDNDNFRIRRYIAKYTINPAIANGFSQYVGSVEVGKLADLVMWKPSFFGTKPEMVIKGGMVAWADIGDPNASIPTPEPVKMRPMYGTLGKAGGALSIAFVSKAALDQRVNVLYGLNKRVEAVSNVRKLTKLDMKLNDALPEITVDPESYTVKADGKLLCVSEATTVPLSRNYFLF
Nature of the experiment: Urease activity inhibition test (13C-urea, 13C-NMR), jack bean urease. The experiment is classed as biochemical. The procedure: Using ^13C-urea as a substrate, the amount of urea, which is eliminated due to the urease enzyme reaction, was measured with a lapse of time by means of ^13C-NMR. On the basis of an elimination rate (M/sec) of ^13C-urea in the absence of the urease inhibitor sample, the case where the elimination rate in the presence of the sample is reduced to half was calculated as IC50 of the sample. […]
Each sample was inserted into a probe and the enzyme reaction was conducted at the reaction temperature (temperature of the probe) of 20° C. and the measurement was conducted every 20 seconds after 1 to 4 minutes have passed since the beginning of the reaction, while the measurement was conducted every one minute after 4 or more minutes have passed, using a ^13C-NMR apparatus. Consequently, an elimination rate (M/sec) of a signal (165 ppm) of ^13C-urea as the substrate was determined. […]
Using the respective compounds obtained in Reference Examples 2 to 5 as the test compound, the same test (using the jack bean urease) was repeated and IC50 of each test compounds was determined, thus calculating a relative urease inhibitory activity value relative to a standard (1) for the same value of BIT. […]

For experiment [3], the system named is Helicobacter pylori ATCC 43504. Nature of the experiment: Anti-Helicobacter pylori activity test (dilution method). The experiment is classed as cell-based. The following applies: H. pylori ATCC 43504, 3 days culture, OD660nm; compared with metronidazole (MN), FIG. 3. The procedure: An anti-Helicobacter pylori activity test of the compound as an active ingredient of the present invention was conducted in the following procedure using a dilution method. Helicobacter pylori ATCC 43504 strains were innoculated in a medium in petri dish (Brucella agar (BECTON […]), containing 7% FBS) and then cultured in a mixed carbonic acid gas-nitrogen gas culture medium (10% CO2, 5% O2, 85% N2, 37° C.) for 2 days. The strains were recovered, cultured similarly in a liquid medium using a Brucella broth (BECTON […]) for one day and then diluted with the same medium to control […] to 0.1. The test compound was dissolved in 50% ethanol-saline to prepare a 1 mg/ml solution and the solution was 1- to 2048-fold diluted by 12 steps with the same medium to prepare dilution series. In each well of cell culture plate (20 μl/well), each step wisely diluted solution (20 μl) of the test compound was charged and a Brucella medium (containing 7% FBS) (160 μl) was added, and then a pylori strain solution (20 μl) was finally added.

Results on 1 compound are retold here after patent publication US20040058952A1, “Urease inhibitors” (Otsuka Pharmaceutical Co., Ltd., priority 2000, published 2004).

Sequence of Helicobacter pylori urease (P14916 whole entry): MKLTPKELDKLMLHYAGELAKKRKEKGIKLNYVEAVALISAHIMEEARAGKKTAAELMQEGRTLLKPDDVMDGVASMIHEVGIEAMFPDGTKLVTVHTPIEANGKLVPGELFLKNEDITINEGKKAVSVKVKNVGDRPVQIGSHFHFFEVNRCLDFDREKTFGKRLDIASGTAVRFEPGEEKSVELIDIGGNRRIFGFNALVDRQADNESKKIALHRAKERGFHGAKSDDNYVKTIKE
Sequence of Helicobacter pylori urease (P69996 whole entry): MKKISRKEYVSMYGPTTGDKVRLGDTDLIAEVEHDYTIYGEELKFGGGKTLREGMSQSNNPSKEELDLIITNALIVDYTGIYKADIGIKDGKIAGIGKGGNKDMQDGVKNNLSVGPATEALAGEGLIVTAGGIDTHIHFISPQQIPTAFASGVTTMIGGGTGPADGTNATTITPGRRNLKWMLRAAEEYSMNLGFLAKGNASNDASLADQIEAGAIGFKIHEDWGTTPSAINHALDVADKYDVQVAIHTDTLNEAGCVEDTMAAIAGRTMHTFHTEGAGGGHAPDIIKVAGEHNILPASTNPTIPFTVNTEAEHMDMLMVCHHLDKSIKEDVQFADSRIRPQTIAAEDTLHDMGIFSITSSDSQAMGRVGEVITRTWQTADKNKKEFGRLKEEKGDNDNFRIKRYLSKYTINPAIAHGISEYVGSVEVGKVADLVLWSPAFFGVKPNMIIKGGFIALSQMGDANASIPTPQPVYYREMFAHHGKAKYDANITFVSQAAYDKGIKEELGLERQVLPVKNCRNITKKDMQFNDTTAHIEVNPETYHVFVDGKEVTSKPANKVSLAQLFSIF

As a reminder, the IC50 is the midpoint of a concentration-inhibition curve. Low values mean greater potency in that assay, high ones weaker potency in that assay. On to `O=c1[nH]sc2ccccc12` [BIT, 1,2-benzoisothiazol-3 (2H)-one], for which the IC50 was 55 µM in experiment [1] and 132 µM in experiment [2]. The “anti-Helicobacter pylori activity (eradication rate)” value in experiment [3] is on record as “stronger than that of MN”.
